Patent US9186318B2, “Quinolyl-containing hydroxamic acid compound and preparation method thereof, and pharmaceutical composition containing this compound and use thereof” (Beijing Konruns Pharmaceutical Co., Ltd, priority 2011, dated 2015)

Tests used:
Test in all cases: KinomeScan 96-kinase panel
Type in all cases: binding
Settings in all cases: compound concentration 1000 nM
[1] = target: AURKB (Homo sapiens (Human), UniProt Q96GD4)
Excerpt: (§1) The details of the screening technology were described in Fabian, M. A. et al, Nat., Biotechnol. 2005, 23, 329 and Karaman, M. W. et al, Nat., Biotechnol. 2008, 26, 127. From the above representative results, it can be seen that the compounds of the present invention have potent inhibitory activities on kinases including ALK, AXL, VEGFR2, PDGFR-α, PDGFR-β, c-KIT, Flt3, MEK1, MEK2, CSF1R, EPHA2, EPHA2, MKNK2, SRC, TIE2 and their mutants. Accordingly, the compounds of the present invention can be used for the treatment of diseases caused by abnormal activities of these kinases, e.g., cancer, psoriasis, hepatic cirrhosis, diabetes, diseases involving angiogenesis, eye diseases, immune system diseases, cardiovascular diseases, and so forth.

[2] = target: FGFR3 (Homo sapiens (Human), UniProt P22607)
Excerpt: as §1

[3] = target: p38-alpha (Homo sapiens (Human), UniProt Q16539)
Excerpt: as §1

[4] = target: AKT2 (Homo sapiens (Human), UniProt P31751)
Excerpt: as §1

[5] = target: FGFR2 (Homo sapiens (Human), UniProt P21802)
Excerpt: as §1

[6] = target: VEGFR2 (Homo sapiens (Human), UniProt P35968)
Sequence of VEGFR2 (P35968 20-1356): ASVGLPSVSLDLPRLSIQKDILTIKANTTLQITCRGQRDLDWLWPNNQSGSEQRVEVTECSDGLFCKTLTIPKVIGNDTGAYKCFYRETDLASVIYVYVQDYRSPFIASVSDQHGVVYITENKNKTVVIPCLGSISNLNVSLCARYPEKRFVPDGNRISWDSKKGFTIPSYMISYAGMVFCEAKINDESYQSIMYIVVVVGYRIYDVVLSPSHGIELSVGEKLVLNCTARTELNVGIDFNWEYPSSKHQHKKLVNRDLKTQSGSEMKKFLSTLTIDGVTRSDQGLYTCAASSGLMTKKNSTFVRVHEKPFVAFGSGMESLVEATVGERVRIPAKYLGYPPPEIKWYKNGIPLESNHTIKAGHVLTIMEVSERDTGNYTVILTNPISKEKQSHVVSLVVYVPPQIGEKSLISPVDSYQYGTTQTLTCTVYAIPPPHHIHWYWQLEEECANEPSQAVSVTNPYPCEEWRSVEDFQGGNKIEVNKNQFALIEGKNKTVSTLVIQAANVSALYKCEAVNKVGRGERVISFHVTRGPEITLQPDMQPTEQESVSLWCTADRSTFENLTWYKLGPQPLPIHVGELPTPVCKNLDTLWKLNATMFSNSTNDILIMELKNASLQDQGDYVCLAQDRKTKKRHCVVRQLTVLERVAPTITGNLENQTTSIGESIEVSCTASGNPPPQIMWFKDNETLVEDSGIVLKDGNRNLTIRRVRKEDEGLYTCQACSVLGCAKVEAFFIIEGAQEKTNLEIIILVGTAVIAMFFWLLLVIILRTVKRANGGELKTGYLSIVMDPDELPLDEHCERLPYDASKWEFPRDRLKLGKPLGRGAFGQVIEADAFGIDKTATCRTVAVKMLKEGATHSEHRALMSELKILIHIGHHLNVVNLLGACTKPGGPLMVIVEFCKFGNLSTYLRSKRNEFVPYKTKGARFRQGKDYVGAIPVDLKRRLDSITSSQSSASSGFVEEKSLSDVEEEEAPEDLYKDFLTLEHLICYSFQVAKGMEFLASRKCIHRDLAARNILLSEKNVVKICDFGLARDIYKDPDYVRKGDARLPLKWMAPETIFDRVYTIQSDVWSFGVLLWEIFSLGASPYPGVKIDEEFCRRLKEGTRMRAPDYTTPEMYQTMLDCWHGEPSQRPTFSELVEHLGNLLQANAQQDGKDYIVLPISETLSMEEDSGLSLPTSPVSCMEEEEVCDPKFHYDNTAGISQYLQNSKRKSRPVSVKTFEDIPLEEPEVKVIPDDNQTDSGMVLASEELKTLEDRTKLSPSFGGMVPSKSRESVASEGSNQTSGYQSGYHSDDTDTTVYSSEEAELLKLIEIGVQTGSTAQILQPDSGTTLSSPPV
Excerpt: as §1

[7] = target: ERBB2 (Homo sapiens (Human), UniProt P04626)
Excerpt: as §1

[8] = target: KIT (V559D, T670I) (Homo sapiens (Human), UniProt P10721, T670I/V559D)
Sequence of KIT (V559D, T670I) (P10721 26-976 V559D/T670I): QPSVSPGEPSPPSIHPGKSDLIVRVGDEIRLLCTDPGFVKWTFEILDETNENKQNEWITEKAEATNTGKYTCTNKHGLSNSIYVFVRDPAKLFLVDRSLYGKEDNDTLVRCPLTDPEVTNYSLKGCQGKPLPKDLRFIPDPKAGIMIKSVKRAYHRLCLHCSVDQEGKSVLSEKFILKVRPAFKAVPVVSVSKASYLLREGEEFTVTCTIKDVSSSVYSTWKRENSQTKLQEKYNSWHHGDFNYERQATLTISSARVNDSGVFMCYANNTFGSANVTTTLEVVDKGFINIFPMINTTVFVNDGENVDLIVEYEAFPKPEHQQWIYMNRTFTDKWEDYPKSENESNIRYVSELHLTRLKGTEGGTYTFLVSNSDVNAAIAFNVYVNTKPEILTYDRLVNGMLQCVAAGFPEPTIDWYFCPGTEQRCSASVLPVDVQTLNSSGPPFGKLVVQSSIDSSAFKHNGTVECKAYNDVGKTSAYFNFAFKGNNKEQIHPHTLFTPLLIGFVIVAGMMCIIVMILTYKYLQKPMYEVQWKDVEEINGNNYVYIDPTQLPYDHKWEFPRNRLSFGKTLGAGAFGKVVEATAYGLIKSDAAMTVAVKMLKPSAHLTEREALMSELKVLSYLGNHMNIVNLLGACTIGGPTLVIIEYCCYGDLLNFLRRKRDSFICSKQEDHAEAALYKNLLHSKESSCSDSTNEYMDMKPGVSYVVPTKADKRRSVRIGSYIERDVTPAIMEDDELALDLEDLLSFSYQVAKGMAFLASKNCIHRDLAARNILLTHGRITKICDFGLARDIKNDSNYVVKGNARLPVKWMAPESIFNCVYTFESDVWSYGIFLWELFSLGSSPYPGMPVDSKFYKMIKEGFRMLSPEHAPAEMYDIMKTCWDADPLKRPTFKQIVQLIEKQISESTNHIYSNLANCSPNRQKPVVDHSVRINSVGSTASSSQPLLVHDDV
Excerpt: as §1

[9] = target: AURKA (Homo sapiens (Human), UniProt O14965)
Excerpt: as §1

[10] = target: PIK3CA (Homo sapiens (Human), UniProt P42336)
Excerpt: as §1

[11] = target: CHEK1 (Homo sapiens (Human), UniProt O14757)
Sequence of CHEK1 (O14757 whole entry): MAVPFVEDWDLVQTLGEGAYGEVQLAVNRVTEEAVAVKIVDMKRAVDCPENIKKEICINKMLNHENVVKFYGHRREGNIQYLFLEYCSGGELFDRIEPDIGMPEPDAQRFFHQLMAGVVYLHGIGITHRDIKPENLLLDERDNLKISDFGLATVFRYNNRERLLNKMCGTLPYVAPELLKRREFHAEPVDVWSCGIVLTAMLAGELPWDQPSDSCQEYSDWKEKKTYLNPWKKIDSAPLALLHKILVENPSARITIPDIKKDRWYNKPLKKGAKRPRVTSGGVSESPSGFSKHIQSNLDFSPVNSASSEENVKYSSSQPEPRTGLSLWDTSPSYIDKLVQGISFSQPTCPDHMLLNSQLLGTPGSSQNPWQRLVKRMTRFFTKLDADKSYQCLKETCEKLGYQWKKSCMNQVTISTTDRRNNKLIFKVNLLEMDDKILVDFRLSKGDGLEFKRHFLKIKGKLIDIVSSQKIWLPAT
Excerpt: as §1

[12] = target: CDK11 (Homo sapiens (Human), UniProt Q9BWU1)
Excerpt: as §1

[13] = target: PLK4 (Homo sapiens (Human), UniProt O00444)
Excerpt: as §1

[14] = target: EPHA2 (Homo sapiens (Human), UniProt P29317)
Excerpt: as §1

[15] = target: IGF1R (Homo sapiens (Human), UniProt P08069)
Excerpt: as §1

[16] = target: PIM2 (Homo sapiens (Human), UniProt Q9P1W9)
Excerpt: as §1

[17] = target: INSR (Homo sapiens (Human), UniProt P06213)
Excerpt: as §1

[18] = target: JNK1 (Homo sapiens (Human), UniProt P45983)
Sequence of JNK1 (P45983 whole entry): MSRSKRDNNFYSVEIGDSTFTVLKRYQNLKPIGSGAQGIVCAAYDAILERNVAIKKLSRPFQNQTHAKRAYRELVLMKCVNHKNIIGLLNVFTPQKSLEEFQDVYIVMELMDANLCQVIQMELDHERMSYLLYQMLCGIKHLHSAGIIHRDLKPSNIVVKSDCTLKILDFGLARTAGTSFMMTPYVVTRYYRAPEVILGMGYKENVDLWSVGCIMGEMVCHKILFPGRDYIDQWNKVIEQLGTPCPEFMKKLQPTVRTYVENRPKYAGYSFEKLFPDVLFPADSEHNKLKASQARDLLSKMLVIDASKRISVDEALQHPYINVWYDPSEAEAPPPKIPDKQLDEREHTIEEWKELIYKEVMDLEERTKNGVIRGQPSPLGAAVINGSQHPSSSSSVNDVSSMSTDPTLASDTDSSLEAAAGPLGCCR
Excerpt: as §1

[19] = target: PDGFRB (Homo sapiens (Human), UniProt P09619)
Excerpt: as §1

[20] = target: PDPK1 (Homo sapiens (Human), UniProt O15530)
Sequence of PDPK1 (O15530 whole entry): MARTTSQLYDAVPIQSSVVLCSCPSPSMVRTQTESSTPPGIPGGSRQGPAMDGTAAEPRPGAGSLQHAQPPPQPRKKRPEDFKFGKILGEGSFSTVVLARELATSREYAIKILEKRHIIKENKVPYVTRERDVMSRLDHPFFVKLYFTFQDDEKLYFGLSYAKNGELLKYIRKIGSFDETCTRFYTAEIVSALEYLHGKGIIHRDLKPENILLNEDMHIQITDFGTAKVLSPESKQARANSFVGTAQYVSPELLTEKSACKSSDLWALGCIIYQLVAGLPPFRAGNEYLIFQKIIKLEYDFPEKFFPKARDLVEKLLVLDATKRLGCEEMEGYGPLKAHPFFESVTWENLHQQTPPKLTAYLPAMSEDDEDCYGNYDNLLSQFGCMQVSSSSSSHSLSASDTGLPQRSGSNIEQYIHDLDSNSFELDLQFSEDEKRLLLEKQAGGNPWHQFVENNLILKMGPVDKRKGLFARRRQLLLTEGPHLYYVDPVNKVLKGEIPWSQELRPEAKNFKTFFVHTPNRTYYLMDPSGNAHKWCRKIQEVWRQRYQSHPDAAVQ
Excerpt: as §1

[21] = target: JNK3 (Homo sapiens (Human), UniProt P53779)
Excerpt: as §1

[22] = target: ABL1-phosphorylated (Homo sapiens (Human), UniProt P00519)
Sequence of ABL1-phosphorylated (P00519 whole entry): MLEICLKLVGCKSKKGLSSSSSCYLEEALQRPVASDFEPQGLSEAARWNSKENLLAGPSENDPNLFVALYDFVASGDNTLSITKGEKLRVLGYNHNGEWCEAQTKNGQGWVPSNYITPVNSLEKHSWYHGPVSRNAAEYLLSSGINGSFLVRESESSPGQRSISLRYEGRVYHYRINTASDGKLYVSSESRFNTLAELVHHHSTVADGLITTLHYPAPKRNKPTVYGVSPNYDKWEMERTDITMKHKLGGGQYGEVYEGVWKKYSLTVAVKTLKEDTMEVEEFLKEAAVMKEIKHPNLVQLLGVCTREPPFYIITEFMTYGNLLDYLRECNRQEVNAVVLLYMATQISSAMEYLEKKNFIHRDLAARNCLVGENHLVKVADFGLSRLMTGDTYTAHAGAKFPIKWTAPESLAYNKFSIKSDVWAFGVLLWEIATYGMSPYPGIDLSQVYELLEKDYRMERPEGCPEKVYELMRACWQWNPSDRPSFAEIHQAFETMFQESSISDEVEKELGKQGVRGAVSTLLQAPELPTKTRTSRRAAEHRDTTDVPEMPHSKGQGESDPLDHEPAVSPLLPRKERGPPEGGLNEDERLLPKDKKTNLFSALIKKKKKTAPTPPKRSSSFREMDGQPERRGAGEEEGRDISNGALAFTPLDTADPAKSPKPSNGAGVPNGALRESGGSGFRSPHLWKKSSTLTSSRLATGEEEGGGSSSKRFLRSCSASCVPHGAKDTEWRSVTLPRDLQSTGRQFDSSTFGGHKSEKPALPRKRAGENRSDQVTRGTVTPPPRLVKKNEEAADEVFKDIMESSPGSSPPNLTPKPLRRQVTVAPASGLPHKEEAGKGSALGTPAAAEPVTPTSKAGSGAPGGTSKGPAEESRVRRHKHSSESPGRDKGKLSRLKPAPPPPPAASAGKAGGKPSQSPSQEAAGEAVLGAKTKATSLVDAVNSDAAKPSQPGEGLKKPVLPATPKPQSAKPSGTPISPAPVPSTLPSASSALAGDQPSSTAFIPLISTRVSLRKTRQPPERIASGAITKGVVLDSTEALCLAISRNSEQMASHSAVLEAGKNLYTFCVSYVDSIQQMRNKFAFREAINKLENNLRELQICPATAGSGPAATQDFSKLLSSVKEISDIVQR
Excerpt: as §1

% Ctrl@1000 nM [1]: 7 % Ctrl
% Ctrl@1000 nM [2]: 64 % Ctrl
% Ctrl@1000 nM [3]: 43 % Ctrl
% Ctrl@1000 nM [4]: 100 % Ctrl
% Ctrl@1000 nM [5]: 65 % Ctrl
% Ctrl@1000 nM [6]: 1 % Ctrl
% Ctrl@1000 nM [7]: 15 % Ctrl
% Ctrl@1000 nM [8]: 0.15 % Ctrl
% Ctrl@1000 nM [9]: 5.2 % Ctrl
% Ctrl@1000 nM [10]: 100 % Ctrl
% Ctrl@1000 nM [11]: 96 % Ctrl
% Ctrl@1000 nM [12]: 1.2 % Ctrl
% Ctrl@1000 nM [13]: 0.55 % Ctrl
% Ctrl@1000 nM [14]: 0.9 % Ctrl
% Ctrl@1000 nM [15]: 21 % Ctrl
% Ctrl@1000 nM [16]: 100 % Ctrl
% Ctrl@1000 nM [17]: 6 % Ctrl
% Ctrl@1000 nM [18]: 100 % Ctrl
% Ctrl@1000 nM [19]: 0 % Ctrl
% Ctrl@1000 nM [20]: 87 % Ctrl
% Ctrl@1000 nM [21]: 100 % Ctrl
% Ctrl@1000 nM [22]: 4.8 % Ctrl
SMILES: COc1cc2c(Oc3ccc(NC(=O)C4(C(=O)Nc5ccc(F)cc5)CC4)cc3F)ccnc2cc1OCCCCCC(=O)NO [Example 13, N1′-[3-fluoro-4-[[7-[6-(hydroxyamino)-6-oxohexyloxy]-6-methoxy-4-quinolyl]oxy]phenyl]-N1-(4-fluorophenyl)cyclopropane-1,1-dicarboxamide]
